Experimental data: patent US7339080B2, “Method for the production of diaminoxylene by continuous hydrogenation of liquid phthalonitrile” (BASF Aktiengesellschaft, priority 2003, dated 2008)

Assay: solubility of IPN in process solvents (MXDA, liquid ammonia)
Format: physicochemical

For `N#Cc1cccc(C#N)c1` [IPN, 1,3-dicyanobenzene], which “solubility of IPN in MXDA” value (in MXDA at 70° C.) is on record?
Its value is “approx. 20 % by weight”.

And the “solubility of IPN in NH3” value (in liquid ammonia (NH3) at 40° C.)?
The value was “approx. 45 % by weight”.
